Laboratory results from US4559362A, “Immunopotentiator” (Zaidan Hojin Biseibutsu Kagaku Kenkyu Kai, priority 1982, dated 1985).

System: IMC ascites tumor
Test: Concomitant treatment with bleomycin and spermidine on IMC ascites tumor, survival
Format: in vivo, CDF1 mice
Protocol: The pharmacological effects of spermidine will be illustrated by reference to the following experimental examples, in which spermidine was administered as its phosphate dissolved in physiological saline.
(c) 1×10^6 IMC cancer cells were transplanted into CDF1 mice by intraperitoneal injection (Day 0). Bleomycin (5 mg/kg) was administered once daily for 5 consecutive days, and spermidine (5 mg/kg) was administered a total of 10 times on alternative days. The effect of concomitant treatment with spermidine and the anticancer drug was evaluated by considering the number of days that the mice survived.

bleomycin [reference compound]
Survival rate on Day 60 (bleomycin (5 mg/kg) alone): 0/10 | Survival period (bleomycin (5 mg/kg) alone, once daily for 5 consecutive days): 31.2 ± 9.4 days | Increase of life span (bleomycin (5 mg/kg) alone, control = 100): 176% | life span increase compared with the control group (bleomycin alone): 76%
